Laboratory results published in publication PMC4649711, “In1-ghrelin splicing variant is overexpressed in pituitary adenomas and increases their aggressive features” (Scientific Reports, 2015).
Several values for one entry are separate records, joined by “and”; a condition that tells them apart may be missing. Identical values can stand only once. Entries after “also recorded” stand apart in the source; their conditions may differ.

What was measured:
[1] = tested on: ACTH-omas (tumoral pituitary cells); assay: free cytosolic calcium kinetics ([Ca^2+]i), ACTH-oma cells; format: cell-based, human
Protocol: (§1) Pituitary adenoma specimens were dispersed into single cells by enzymatic and mechanical disruption and cultured onto tissue culture plates in serum containing medium, as previously described. Briefly, pituitary samples were resected by endoscopic transsphenoidal surgery and transferred to sterile cold (4°C) culture medium (S-MEM, Gibco, Madrid, Spain) supplemented with 0.1% BSA, 0.01% L-glutamine, 1% antibiotic-antimycotic solution, and 2.5% HEPES. Samples were minced under sterile conditions into 1–2 mm^3 pieces. Some pieces were stored at −80°C for posterior RNA isolation and, when possible, the remaining tissue samples were washed and incubated in 30 mL S-MEM medium supplemented 0.3% trypsin (Beckson, Dickinson and Company, Sparks, MD, USA) in a spinner flask (Bellco Glass, Vineland, NJ, USA) for 2 h of gentle shaking at 37°C and then, incubation was continued for another 5 min in presence of 1 mg of DNAse I (Roche, Mannheim, Germany). Dispersed cells were decanted by centrifugation and then, by repeated aspiration into a smoothtipped glass Pasteur pipette. […]
(§2) As previously reported, changes in [Ca^2+]i in single cells were measured using fura-2AM (50,000 cells/coverslip; Molecular Probes, Eugene, OR)[23][30]. […] Cells were examined for changes in [Ca^2+]i after the appropriate treatment (native ghrelin, In1-19 or In1-40) using a 40× objective with Immersion Oil Type NF (Nikon, Tokyo, Japan) while exposed to alternating 340–380 nm light beams, and the intensity of light emission at 505 nm was measured every 5 seconds using MetaFluor Software (Imaging Corp., West Chester, PA, USA). […] Changes in [Ca^2+]i in CHO-K1 cell line expressing recombinant GHSR1a or GHSR1b receptor were measured using Calcium 4 Explorer Kit (Molecular Devices, Sunnyvale, CA, USA). […] Fluorescent signals were then monitored using the FLIPR Tetra (Molecular Devices, Sunnyvale, CA, USA) during which cells were stimulated with compounds. Dose-response curves were analyzed using GraphPad Prism v5.04 (La Jolla, CA, USA).

GH-omas [2] = assay: GH secretion from GH-oma primary cultures; format: cell-based, human; conditions: 100 nM; 4 h and 24 h; ELISA; % of vehicle; n = 3–7
Protocol: (§3) Pituitary adenoma specimens were dispersed into single cells by enzymatic and mechanical disruption and cultured onto tissue culture plates in serum containing medium, as previously described. Briefly, pituitary samples were resected by endoscopic transsphenoidal surgery and transferred to sterile cold (4°C) culture medium (S-MEM, Gibco, Madrid, Spain) supplemented with 0.1% BSA, 0.01% L-glutamine, 1% antibiotic-antimycotic solution, and 2.5% HEPES. Samples were minced under sterile conditions into 1–2 mm^3 pieces. […]
(§4) To examine the effects of ghrelin system components (4- and/or 24 h-incubation) on pituitary hormone release from primary pituitary adenoma and/or AtT-20 cell line, 100,000–200,000 cell/well were used. As previously reported, hormone concentrations were measured in the culture media derived from human samples according to the pituitary adenoma type using commercial ELISAs [growth hormone, GH; adrenocorticotropin, ACTH; and prolactin, PRL (reference numbers: EIA-3552, EIA-3647 and EIA-1291, respectively; DRG, Mountainside, NJ, USA)] following the manufacturer's instructions. […]

ACTH-omas [3] = assay: ACTH secretion from ACTH-oma primary cultures; format: cell-based, human; conditions: 100 nM; 24 h; ELISA; % of vehicle; n = 3–9
Protocol: as §3, §4

ACTH-omas [4] = tested on: ACTH-omas; set-up: method as in PMID 17280594; conditions: previous data; cited from earlier work
GH-omas [5] = assay: apoptotic rate in GH-omas; format: cell-based, human; conditions: 100 nM, 12–14 h, Annexin V/Propidium Iodide, flow cytometry, n = 3
Protocol: as §1, with “pipette. Cells suspensions were washed once in 4.5 g/L glucose containing DMEM medium (Gibco, Madrid, Spain) supplemented with 0.1% BSA, 0.01% L-glutamine, 1% antibiotic-antimycotic solution, and 2.5% HEPES.” for “pipette.”

[6] = tested on: NFPA (tumoral pituitary cells); assay: free cytosolic calcium kinetics ([Ca^2+]i), NFPA cells; format: cell-based, human
Protocol: as §1, §2

[7] = tested on: GH-omas (tumoral pituitary cells); assay: free cytosolic calcium kinetics ([Ca^2+]i), GH-oma cells; format: cell-based, human
Protocol: as §1, §2

[8] = proportion of responsive cells, fura-2AM single-cell imaging

CCCCCCCC(=O)OC[C@H](NC(=O)[C@H](CO)NC(=O)CN)C(=O)N[C@@H](Cc1ccccc1)C(=O)N[C@@H](CC(C)C)C(=O)N[C@@H](CO)C(=O)N1CCC[C@H]1C(=O)N[C@@H](CCC(=O)O)C(=O)N[C@@H](Cc1c[nH]cn1)C(=O)N[C@@H](CCC(N)=O)C(=O)N[C@@H](CCCNC(=N)N)C(=O)N[C@H](C(=O)N[C@@H](CCC(N)=O)C(=O)N[C@@H](CCC(N)=O)C(=O)N[C@@H](CCCNC(=N)N)C(=O)N[C@@H](CCCCN)C(=O)N[C@@H](CCC(=O)O)C(=O)N[C@@H](CO)C(=O)N[C@@H](CCCCN)C(=O)N[C@@H](CCCCN)C(=O)N1CCC[C@H]1C(=O)N1CCC[C@H]1C(=O)N[C@@H](C)C(=O)N[C@@H](CCCCN)C(=O)N[C@@H](CC(C)C)C(=O)N[C@@H](CCC(N)=O)C(=O)N1CCC[C@H]1C(=O)N[C@@H](CCCNC(=N)N)C(=O)O)C(C)C [AG]
[Ca^2+]i response (in words) ([1]; fura-2AM): doubling the [Ca^2+]i levels | % cell resp. [1, 8]: 74% and 74.1% | # samples ([1]; responsive/tested samples, fura-2AM, 742 / 230 / 143 cells analyzed for AG / In1-19 / In1-40, peptides 100 nM (abstract)): 9/9 | GH secretion (GH-omas [2]): similarly and significantly, increased GH secretion; also recorded: promoted GH secretion | ACTH secretion (ACTH-omas [3]): significantly increased ACTH secretion | ACTH release (ACTH-omas [4]): able to elicit an effect on ACTH release | apoptotic rate (GH-omas [5]): did not alter apoptotic rate | % cell resp. ([6]; NFPA, proportion of responsive cells, fura-2AM single-cell imaging): 29% and 29.4% | # samples ([6]; NFPA, responsive/tested samples, fura-2AM, 408 / 367 / 29 cells analyzed for AG / In1-19 / In1-40, peptides 100 nM (abstract)): 9/15 | [Ca^2+]i response (in words) ([6]; NFPAs, fura-2AM): a subset of NFPA cells is responsive | [Ca^2+]i response (in words) ([7]; fura-2AM): doubling the [Ca^2+]i levels; also recorded: increased [Ca^2+]i | % cell resp. [7, 8]: 74% | # samples ([7]; responsive/tested samples, fura-2AM single-cell imaging, 1500 / 983 / 520 cells analyzed for AG / In1-19 / In1-40, peptides 100 nM (abstract)): 27/27
